One block for each molecule: values may come before it.
How the values were obtained:
[1] = molecular target: T1, Protein arginine N-methyltransferase 7 (Homo sapiens, UniProt Q9NVM4); assay: Inhibition of human recombinant His-tagged PRMT7 extracted from Escherichia coli BL21 (DE3)
T1 sequence (Q9NVM4 whole entry): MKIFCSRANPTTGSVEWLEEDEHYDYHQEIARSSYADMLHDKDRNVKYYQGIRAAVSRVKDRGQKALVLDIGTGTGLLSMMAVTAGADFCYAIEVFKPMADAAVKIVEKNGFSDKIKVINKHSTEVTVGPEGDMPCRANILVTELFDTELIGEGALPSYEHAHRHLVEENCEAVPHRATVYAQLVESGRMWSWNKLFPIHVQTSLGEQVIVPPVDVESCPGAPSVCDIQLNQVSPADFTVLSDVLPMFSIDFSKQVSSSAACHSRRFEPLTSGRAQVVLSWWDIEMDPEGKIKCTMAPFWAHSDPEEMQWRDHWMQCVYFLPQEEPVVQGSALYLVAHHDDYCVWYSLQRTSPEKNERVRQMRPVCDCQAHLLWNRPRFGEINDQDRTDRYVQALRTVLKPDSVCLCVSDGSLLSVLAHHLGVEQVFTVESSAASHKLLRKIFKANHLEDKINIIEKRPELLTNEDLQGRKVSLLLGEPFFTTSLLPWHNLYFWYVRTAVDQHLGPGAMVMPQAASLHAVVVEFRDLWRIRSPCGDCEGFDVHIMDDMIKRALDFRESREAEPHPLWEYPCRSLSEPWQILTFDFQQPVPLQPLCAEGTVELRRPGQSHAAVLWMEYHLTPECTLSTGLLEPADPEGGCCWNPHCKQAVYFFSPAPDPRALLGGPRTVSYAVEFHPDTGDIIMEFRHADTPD

[2] = molecular target: T1, Protein arginine N-methyltransferase 7; assay: Inhibition of full length human recombinant PRMT7 extracted from Sf9 cells using […] as substrate incubated for 1 hr by TopCount scintillation proximity assay; assay type: cell-free
[3] = molecular target: T1, Protein arginine N-methyltransferase 7; assay: Inhibition of human PRMT7
[4] = molecular target: Protein arginine N-methyltransferase 5 (Homo sapiens, UniProt O14744); assay: Inhibition of human PRMT5
Chain of Protein arginine N-methyltransferase 5 (O14744 whole entry): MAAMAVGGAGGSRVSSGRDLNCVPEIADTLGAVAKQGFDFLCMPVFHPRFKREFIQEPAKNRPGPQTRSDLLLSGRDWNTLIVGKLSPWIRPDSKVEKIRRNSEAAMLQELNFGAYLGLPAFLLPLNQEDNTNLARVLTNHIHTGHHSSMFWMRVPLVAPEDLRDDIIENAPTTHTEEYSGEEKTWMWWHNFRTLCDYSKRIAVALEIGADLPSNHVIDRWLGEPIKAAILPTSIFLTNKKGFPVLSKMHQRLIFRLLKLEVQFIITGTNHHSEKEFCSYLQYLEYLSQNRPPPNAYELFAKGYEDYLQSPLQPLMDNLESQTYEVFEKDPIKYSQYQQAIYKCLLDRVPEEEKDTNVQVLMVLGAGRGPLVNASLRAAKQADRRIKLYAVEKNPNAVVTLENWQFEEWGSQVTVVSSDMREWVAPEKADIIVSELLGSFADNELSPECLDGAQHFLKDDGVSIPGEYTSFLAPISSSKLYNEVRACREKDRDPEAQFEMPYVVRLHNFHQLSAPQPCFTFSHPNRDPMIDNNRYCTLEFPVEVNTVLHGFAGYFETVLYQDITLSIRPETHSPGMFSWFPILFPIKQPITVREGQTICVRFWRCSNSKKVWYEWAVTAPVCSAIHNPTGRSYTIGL

[5] = molecular target: T1, Protein arginine N-methyltransferase 7; assay: Inhibition of human PRMT7 in HEK293T cells assessed as reduction in HSP70 methylation; assay type: cell-based
[6] = tested on: KB; assay: Antiproliferative activity against human KB cells assessed as reduction in cell viability by MTT assay; assay type: functional, cell-based
[7] = Antiproliferative activity against human MEF cells assessed as reduction in cell viability by MTT assay; assay type: functional, cell-based
[8] = molecular target: T1, Protein arginine N-methyltransferase 7; assay: Inhibition of human PRMT7 in HCT-116 cells assessed as reduction in HSP70 methylation; assay type: cell-based
[9] = tested on: HepG2; assay: Antiproliferative activity against human HepG2 cells assessed as reduction in cell viability by MTT assay; assay type: functional, cell-based
[10] = tested on: MCF7; assay: Antiproliferative activity against human MCF7 cells assessed as reduction in cell viability by MTT assay; assay type: functional, cell-based

IC50 [1]: 23.3 µM
SMILES: C/N=C(\N)N/N=C(\C)c1ccc2oc3ccc(/C(C)=N/N/C(N)=N/C)cc3c2c1

IC50 [2]: 2.5 µM
SMILES: Nc1ncnc2c1ncn2[C@@H]1O[C@H](CSCCCCNCc2cccc(-c3ccc(Cl)cc3)c2)[C@@H](O)[C@H]1O

IC50 [3]: 5 µM | IC50 [4]: 50 µM
SMILES: COc1cc(-c2ncc(F)c(Nc3ccc4nc(C)cc(N)c4c3)n2)cc(OC)c1OC

IC50 [5]: 2.4 µM | IC50 [6]: 2.2 µM | IC50 [8]: 2.4 µM | IC50 [9]: 2.2 µM | IC50 [10]: 2.2 µM
SMILES: CC1=C(C)C(=O)C(C(C)(C)CC(=O)N(CCCCSC[C@H]2O[C@@H](n3cnc4c(N)ncnc43)[C@H](O)[C@@H]2O)Cc2cccc(-c3ccc(Cl)cc3)c2)=C(C)C1=O
IC50 [7]: 28.4 µM

— ChEMBL document CHEMBL6103549, “PRMT7 in cancer: Structure, effects, and therapeutic potentials” (Eur J Med Chem, 2025)
